Values after ≈ are worked out from the molar mass of the structure shown. Like-named read-outs stand apart in the source and are kept apart here.
Key:
[1] = tested on: H. pylori ATCC 43504 (metronidazole-resistant); assay: MIC/MBC by broth microdilution, strain ATCC 43504 (MTZ-R); format: cell-based; details: Helicobacter pylori; for MBC: ATCC43504; for MIC: ATCC43504, 72 h
[2] = target: T1, H. pylori HsrA response regulator (Helicobacter pylori, UniProt O25684); assay: biochemical; format: binding; details: for n (binding stoichiometry): absolute error 0.06; for ΔG: absolute error 0.2 kcal/mol; for ΔH: absolute error 0.4 kcal/mol
Description: Thermodynamic parameters of the molecular interaction between HsrA and its DHP-class inhibitors were analyzed by isothermal titration calorimetry (ITC) using an AutoiTC200 calorimeter (MicroCal, Malvern Instruments, Malvern, Worcestershire, UK). A solution of 20 µM of the protein in 50 mM Tris-HCl [pH 8], 150 mM NaCl, 10% glycerol, 1% DMSO was titrated with 200 µM of the corresponding ligand (DHP) dissolved in the same buffer at 25 °C. A total of 19 injections of 2 μL was added sequentially to the sample cell after 150 s spacing to ensure that the thermal power returned to the baseline before the next injection. Dissociation constants and binding enthalpies were calculated by non-linear least squares regression data analysis using the software package Origin 7.0 (OriginLab, Northampton, MA, USA).

H. pylori ATCC 700392 = assay: MIC/MBC by broth microdilution, strain ATCC 700392; format: cell-based; details: Helicobacter pylori, ATCC700392; for MBC: ATCC 700392; for MIC: ATCC 700392, 72 h
[3] = target: T1, H. pylori HsrA response regulator; format: biochemical; details: EMSA; for Inhibition of the DNA binding activity of HsrA: 6 µM HsrA, 120 ng target promoter, 0.1 to 2 mM DHP; for Inhibition of HsrA activity at 100 μM: 100 μM drug, 6 μM HsrA
Description: The in vitro biological activity of the H. pylori HsrA response regulator and its potential inhibition by DHP drugs were assessed by electrophoretic mobility shift assay (EMSA) as previously described. Briefly, 120 ng of target DNA (promoter region of the H. pylori porGDAB operon) was mixed with 6 µM of recombinant HsrA [17] in the presence of increasing concentrations (0.1 to 2 mM) of selected DHP drugs. Mixtures of DNA and protein in a 20 μL reaction volume containing 10 mM bis-Tris (pH 7.5), 40 mM KCl, 100 mg/L BSA, 1 mM DTT and 5% glycerol were incubated at room temperature for 20 min and then separated by 6% native polyacrylamide gel electrophoresis. A 150 bp fragment of the Anabaena sp. PCC 7120 gene pkn22 was included as non-specific competitor DNA in all assays. EMSA gels were stained with SYBR Safe® (Thermo Fisher Scientific, Bothell, WA, USA) and analyzed using the Bio-Rad Gel Doc 2000 imaging system.

H. pylori strain PMSS1 = assay: H. pylori gastric colonization in C57BL/6 mice (bacterial counts and qPCR); format: in vivo, Helicobacter pylori (in C57BL/6 mice); details: PMSS1, oral 100 mg/kg/day marketed formulation + omeprazole 140 mg/kg/day, 7 days, vs infected non-treated
Mouse [4] = assay: Mouse oral median lethal dose (LD50); format: in vivo; details: oral dose 100 mg/kg/day versus mouse oral LD50
Mouse [5] = details: cited from earlier work
[6] = tested on: H. pylori ATCC 700684 (clarithromycin resistant); assay: MIC/MBC by broth microdilution, strain ATCC 700684 (CLR-R); format: cell-based; details: Helicobacter pylori; for MBC: ATCC700684; for MIC: ATCC700684, 72 h
[7] = tested on: H. pylori ATCC 43504 (MTZ-R); assay: Checkerboard assay with metronidazole, strain ATCC 43504; format: cell-based, Helicobacter pylori
Description: (§1) Antibacterial synergies of selected DHPs in combination with first-line anti-H. pylori antibiotics were tested by the checkerboard assay. Using 96-well flat-bottom microtiter plates, we assayed the antibacterial effect of the interaction of a range of 2-fold dilutions of clarithromycin or metronidazole with a range of 2-fold dilutions of each selected DHP. Serial dilutions of both antimicrobials (antibiotic and DHP) were firstly prepared using two different sterile microtiter plates, one compound was diluted along the rows in a first plate, and the other compound was diluted along the columns of a second plate. Then, both gradients were mixed in a third microtiter plate and inoculated with a freshly prepared bacterial suspension of H. pylori at 2 × 10^6 CFU/mL in BHI+FBS. Plates were incubated for 48 h at 37 °C under microaerobic conditions. […] The interaction between drugs was determined by calculating the fractional inhibitory concentration index (FICI) as: FICA (MICA in the presence of B/MICA alone) + FICB (MICB in the presence of A/MICB alone).

[8] = tested on: H. pylori ATCC 700684 (CLR-R); assay: Checkerboard assay with clarithromycin, strain ATCC 700684; format: cell-based, Helicobacter pylori
Description: as §1

[9] = tested on: different strains of H. pylori; design: method as in PMID 31383920; details: including metronidazole- and clarithromycin-resistant strains; cited from earlier work
[10] = target: T1, H. pylori HsrA response regulator; design: method as in PMID 31383920; details: previous work; cited from earlier work
[11] = tested on: H. pylori strain ATCC 700684; assay: Time-kill kinetics assay; format: cell-based, Helicobacter pylori; details: 2 × MIC
Description: Time–kill curves for selected DHP drugs were determined using the H. pylori strain ATCC 700684 [17]. […] DMSO instead of drugs was included as control. Colony forming units (CFUs) were determined after 4, 8, and 24 h of drug exposition by culturing on Blood Agar Base No.2 supplemented with 8% defibrinated horse blood for 72 h under microaerobic conditions. Each determination was performed twice in triplicate and the results were presented as log10 CFU/mL versus incubation time. Statistical analysis was performed using the Mann–Whitney U test. A p value smaller than 0.05 was considered significant.

[12] = tested on: H. pylori essential response regulator HsrA; design: method as in PMID 31383920; details: binds native state of HsrA; cited from earlier work
[13] = ITC, 25 °C, pH 8, relative error 40%, read-out: Kd

T1 sequence (O25684 entry or part of it): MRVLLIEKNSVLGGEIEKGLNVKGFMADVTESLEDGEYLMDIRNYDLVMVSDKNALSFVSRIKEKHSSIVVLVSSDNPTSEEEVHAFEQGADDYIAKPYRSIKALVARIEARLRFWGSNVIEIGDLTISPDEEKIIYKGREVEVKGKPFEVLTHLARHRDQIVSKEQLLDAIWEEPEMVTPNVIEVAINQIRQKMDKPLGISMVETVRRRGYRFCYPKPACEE

Row | SMILES | MBC [1] | MIC [1] | n (binding stoichiometry) ([2]; ITC, 25 °C, pH 8) | ΔG ([2]; ITC, 25 °C, pH 8) | ΔH ([2]; ITC, 25 °C, pH 8) | MBC (H. pylori ATCC 700392) | MIC (H. pylori ATCC 700392) | Inhibition of the DNA binding activity of HsrA [3] | Mouse LD50 (mg/kg, oral) (Mouse [5]; ref PubChem) | MBC [6] | MIC [6] | Bactericidal activity against different strains of H. pylori [9] | Inhibition of the biological activity of HsrA [10] | also measured
1 | COCCOC(=O)C1=C(C)NC(C)=C(C(=O)OC(C)C)C1c1cccc([N+](=O)[O-])c1 (centres unmarked) [Nimodipine] | 32 µg/mL (≈ 76.5 µM) | 16 µg/mL (≈ 38.2 µM) | 0.71 | -7.3 kcal/mol | -2.1 kcal/mol | 8 µg/mL (≈ 19.1 µM) | 8 µg/mL (≈ 19.1 µM) | noticeably inhibited | 940 mg/kg | 4 µg/mL (≈ 9.56 µM) | 4 µg/mL (≈ 9.56 µM) | – | – | Kd [2, 13]: 4.1 µM; H. pylori gastric colonization, bacterial counts (CFU/mg of stomach) (H. pylori strain PMSS1): significantly reduced; H. pylori gastric colonization, qPCR (bacteria per 10,000 murine cells) (H. pylori strain PMSS1): significantly reduced; Treatment dose, times lower than LD50 (Mouse [4]): 9.4 times; Reduction of the MIC value of metronidazole ([7]; in combination with DHP, ATCC 43504): up to 8 times; FICantibiotic ([7]; metronidazole in combination with DHP, ATCC 43504 (MTZ-R)): 0.125
2 | CCOC(=O)C1=C(C)NC(C)=C(C(=O)OC)C1c1cccc([N+](=O)[O-])c1 (centres unmarked) [Nitrendipine] | 16 µg/mL (≈ 44.4 µM) | 16 µg/mL (≈ 44.4 µM) | 0.75 | -6.9 kcal/mol | -2.6 kcal/mol | 8 µg/mL (≈ 22.2 µM) | 8 µg/mL (≈ 22.2 µM) | noticeably inhibited | 2540 mg/kg | 8 µg/mL (≈ 22.2 µM) | 8 µg/mL (≈ 22.2 µM) | – | – | Kd [2]: 9 µM; H. pylori gastric colonization, bacterial counts (CFU/mg of stomach) (H. pylori strain PMSS1): significantly reduced; H. pylori gastric colonization, qPCR (bacteria per 10,000 murine cells) (H. pylori strain PMSS1): significantly reduced; Treatment dose, times lower than LD50 (Mouse [4]): 25.4 times
3 | COC(=O)C1=C(C)NC(C)=C(C(=O)OC(C)(C)CN(C)CCC(c2ccccc2)c2ccccc2)C1c1cccc([N+](=O)[O-])c1 (centres unmarked) [Lercanidipine] | 64 µg/mL (≈ 105 µM) | 32 µg/mL (≈ 52.3 µM) | 0.81 | -6.4 kcal/mol | -4.8 kcal/mol | 8 µg/mL (≈ 13.1 µM) | 8 µg/mL (≈ 13.1 µM) | noticeably inhibited | – | 8 µg/mL (≈ 13.1 µM) | 8 µg/mL (≈ 13.1 µM) | – | – | Kd [2, 13]: 20 µM; FICantibiotic ([8]; clarithromycin in combination with DHP, ATCC 700684 (CLR-R)): 0.0625; Reduction of the MIC value of clarithromycin ([8]; in combination with DHP, ATCC 700684): up to 16 times; Mouse LD50 (mg/kg, oral) (Mouse [5]): 622 mg/kg
4 | COc1ccc([C@@H]2CC(=O)c3c(O)cc(O)cc3O2)cc1O [hesperetin] | – | – | – | – | – | – | – | – | – | – | – | strong bactericidal activities | noticeably inhibited | –
5 | Cc1ncc([N+](=O)[O-])n1CCO [Metronidazole] | 128 µg/mL (≈ 748 µM) | 64 µg/mL (≈ 374 µM) | – | – | – | 2 µg/mL (≈ 11.7 µM) | 1 µg/mL (≈ 5.84 µM) | – | – | 2 µg/mL (≈ 11.7 µM) | 1 µg/mL (≈ 5.84 µM) | – | – | –
6 | O=c1cc(-c2ccccc2)oc2cc(O)cc(O)c12 [chrysin] | – | – | – | – | – | – | – | – | – | – | – | strong bactericidal activities | noticeably inhibited | –
7 | COC(=O)C1=C(C)NC(C)=C(C(=O)OCCN(C)Cc2ccccc2)C1c1cccc([N+](=O)[O-])c1 (centres unmarked) [Nicardipine] | 8 µg/mL (≈ 16.7 µM) | 8 µg/mL (≈ 16.7 µM) | 0.72 | -7.5 kcal/mol | -2.0 kcal/mol | 8 µg/mL (≈ 16.7 µM) | 8 µg/mL (≈ 16.7 µM) | noticeably inhibited | 305 mg/kg | 8 µg/mL (≈ 16.7 µM) | 8 µg/mL (≈ 16.7 µM) | – | – | Decline in bacterial counts (time-kill kinetics) compared to other DHPs [11]: significantly faster; Killing effect after 4 h of exposition [11]: completely lethal; Kd [2, 13]: 3 µM; Inhibition of HsrA activity at 100 μM [3]: partially inhibited; Effect on HsrA conformational stability (thermal shift) [12]: increased the protein conformational stability
8 | CC[C@H]1OC(=O)[C@H](C)[C@@H](O[C@H]2C[C@@](C)(OC)[C@@H](O)[C@H](C)O2)[C@H](C)[C@@H](O[C@@H]2O[C@H](C)C[C@H](N(C)C)[C@H]2O)[C@](C)(OC)C[C@@H](C)C(=O)[C@H](C)[C@@H](O)[C@]1(C)O [Clarithromycin] | ≤ 0.12 µg/mL | ≤ 0.12 µg/mL | – | – | – | ≤ 0.12 µg/mL | ≤ 0.12 µg/mL | – | – | 32 µg/mL (≈ 42.8 µM) | 16 µg/mL (≈ 21.4 µM) | – | – | –
9 | O=c1c(O)c(-c2ccc(O)cc2)oc2cc(O)cc(O)c12 [kaempferol] | – | – | – | – | – | – | – | – | – | – | – | strong bactericidal activities | noticeably inhibited | –
10 | COC(=O)C1=C(C)NC(C)=C(C(=O)OCC(C)C)C1c1ccccc1[N+](=O)[O-] (centres unmarked) [Nisoldipine] | 16 µg/mL (≈ 41.2 µM) | 16 µg/mL (≈ 41.2 µM) | 0.70 | -6.8 kcal/mol | -2.2 kcal/mol | 4 µg/mL (≈ 10.3 µM) | 4 µg/mL (≈ 10.3 µM) | noticeably inhibited | 411 mg/kg | 4 µg/mL (≈ 10.3 µM) | 4 µg/mL (≈ 10.3 µM) | – | – | Decline in bacterial counts (time-kill kinetics) compared to other DHPs [11]: significantly faster; Killing effect after 4 h of exposition [11]: completely lethal; Kd [2]: 11 µM; Inhibition of HsrA activity at 100 μM [3]: partially inhibited
11 | O=c1cc(-c2ccc(O)cc2)oc2cc(O)cc(O)c12 [apigenin] | – | – | – | – | – | – | – | – | – | – | – | strong bactericidal activities | noticeably inhibited | –
12 | COC(=O)C1=C(C)NC(C)=C(C(=O)OC)C1c1ccccc1[N+](=O)[O-] [Nifedipine] | 16 µg/mL (≈ 46.2 µM) | 16 µg/mL (≈ 46.2 µM) | – | – | – | 8 µg/mL (≈ 23.1 µM) | 8 µg/mL (≈ 23.1 µM) | – | – | 8 µg/mL (≈ 23.1 µM) | 8 µg/mL (≈ 23.1 µM) | – | – | Decline in bacterial counts (time-kill kinetics) compared to other DHPs [11]: significantly slower
